According to patent US8158635B2, “Solid forms comprising 4-[9-(tetrahydro-furan-3-yl)-8-(2,4,6-trifluoro-phenylamino)-9H-purin-2-ylamino]-cyclohexan-1-ol, compositions thereof, and uses therewith” (Signal Pharmaceuticals, LLC, priority 2006, dated 2012):
≈ marks a conversion by molar mass, not a printed value. Like-named read-outs stand apart in the source and are kept apart here.

Assays:
Format in all cases: physicochemical
[1] = Equilibration of solid form in solvent for 4 weeks at 40° C., resulting form by XRPD
Procedure: Equilibration slurry and evaporation experiments were carried out by adding an excess of Compound I free base or HCl salt to 2 mL of solvent. […] Upon reaching equilibrium, the saturated supernatant solution was removed and allowed to evaporate slowly in an open vial under nitrogen at 25° C. or 50° C., respectively. The slurry resulting from the equilibration was filtered and air-dried. X-ray powder diffraction (XRPD) measurements were performed in accordance with United States Pharmacopeia (USP) monograph <941> entitled “X-ray Diffraction” (See, e.g., The United States Pharmacopeia, The National Formulary, 2003, The Unites States Pharmacopeial Convention, Inc., Rockville, Md., 2002, which is herein incorporated by reference in its entirety). A Thermo ARL X'TRA X-ray powder diffractometer (Thermo Electron Corp., Waltham, Mass.), equipped with Nickel-filtered Cu Kα radiation at 1.54 Å, was used for XRPD measurements from about 1.5 °2θ to about 40 °2θ, with a step size of about 0.020°, a count time of about 0.50 seconds per step, and a step scan rate of about 2.40°/min. The instrument was equipped with a fine focus X-ray tube. The voltage and amperage were set at 45 kV and 40 mA, respectively. The divergence slits were set at 0.5 mm and 0.2 mm. Diffracted radiation was measured using a Peltier-cooled Si (Li) solid-state detector. Representative XRPD patterns were presented displaying intensity (counts per second) versus position (°2θ). A sintered alumina standard was used to check peak positions. Peak positions may vary from sample to sample by approximately ±0.1 °2θ. Variation in peak position may depend upon multiple factors, including particle size, sample preparation, data collection temperature and parameters. Variation in peak intensity may occur, e.g., as a result of preferred orientation and/or variation in crystal habit.

[2] = Compression testing, form checked by XRPD; settings: about 2000-psi pressure for about 1 min
Procedure: (§1) In certain embodiments, Form A of the free base of Compound I is stable during drying at temperatures up to about 40-45° C. In certain embodiments, the crystallization and/or recrystallization of Form A of the free base of Compound I provides an effective means of purification by removing or reducing the levels of chemical impurities (such as, e.g., one or more of the chemical compounds provided in FIG. 14) in the resulting material. In certain embodiments, Form A of the free base of Compound I is substantially pure. […] In certain embodiments, Form A of the free base of Compound I is stable upon compression.
X-ray powder diffraction (XRPD) measurements were performed in accordance with United States Pharmacopeia (USP) monograph <941> entitled “X-ray Diffraction” (See, e.g., The United States Pharmacopeia, The National Formulary, 2003, The Unites States Pharmacopeial Convention, Inc., Rockville, Md., 2002, which is herein incorporated by reference in its entirety). A Thermo ARL X'TRA X-ray powder diffractometer (Thermo Electron Corp., Waltham, Mass.), equipped with Nickel-filtered Cu Kα radiation at 1.54 Å, was used for XRPD measurements from about 1.5 °2θ to about 40 °2θ, with a step size of about 0.020°, a count time of about 0.50 seconds per step, and a step scan rate of about 2.40°/min. […] Diffracted radiation was measured using a Peltier-cooled Si (Li) solid-state detector. […]

[3] = Moisture sorption analysis (Dynamic Vapor Sorption)
Procedure: as §1
Hygroscopicity (moisture sorption desorption) was determined by Dynamic Vapor Sorption (DVS). A solid sample comprising Compound I ranging from 10 to 50 mg was placed into the DVS instrument at 0% relative humidity (RH). The RH was increased from 0% to 80% or 95%. The RH was then decreased in a similar manner to accomplish a full sorption desorption cycle.

[4] = Approximate solubilities of solid forms in solvents; settings: thermodynamic from solid, about 25° C., at least 24 hours, read-out: Approximate Solubility (mg/mL) of Form A of the Free Base of Compound I
Procedure: A weighed sample comprising either the free base or the HCl salt of Compound I was treated with 2 mL of a solvent (either HPLC or reagent grade). The resulting mixture was agitated for at least 24 hours at about 25° C. When all of the solids were dissolved by visual inspection, the estimated solubility was calculated. The solubility was estimated from these experiments based on the total volume of solvent used to give a complete solution. The actual solubility may be greater than those calculated due to the use of a large amount of solvent or a slow rate of dissolution. A known volume of filtrate was evaporated to dryness and the weight of the residue was measured.

Q: For `O[C@H]1CC[C@H](Nc2ncc3nc(Nc4c(F)cc(F)cc4F)n([C@H]4CCOC4)c3n2)CC1` (stereo in doubt) [Form A of the Free Base of Compound I, 4-[9-(tetrahydro-furan-3-yl)-8-(2,4,6-trifluoro-phenylamino)-9H-purin-2-ylamino]-cyclohexan-1-ol], which “Resulting Form by XRPD” value ([1]; Equilibrate Form A in 2-Propanol for 4 weeks at 40° C.) is on record?
A: Compound I Free Base Form A

Q: And the “Resulting Form by XRPD” value ([1]; Equilibrate Form A in Acetone for 4 weeks at 40° C.)?
A: Compound I Free Base Form A

Q: And the “Resulting Form by XRPD” value ([1]; Equilibrate Form A in Acetonitrile for 4 weeks at 40° C.)?
A: Compound I Free Base Form A

Q: What about the “Resulting Form by XRPD” value ([1]; Equilibrate Form A in Ethyl acetate for 4 weeks at 40° C.) of the same compound?
A: Compound I Free Base Form A

Q: What about the “Resulting Form by XRPD” value ([1]; Equilibrate Form A in Heptane for 4 weeks at 40° C.) of the same compound?
A: Compound I Free Base Form A

Q: And the “Resulting Form by XRPD” value ([1]; Equilibrate Form A in MTBE for 4 weeks at 40° C.)?
A: Compound I Free Base Form A

Q: What about the “Resulting Form by XRPD” value ([1]; Equilibrate Form A in Toluene for 4 weeks at 40° C.) of the same compound?
A: Compound I Free Base Form A

Q: What about the “Resulting Form by XRPD” value ([1]; Equilibrate Form A in Water for 4 weeks at 40° C.) of the same compound?
A: Compound I Free Base Form A

Q: And the “XRPD pattern after compression testing” value [2]?
A: substantially unchanged

Q: And the “XRPD pattern following moisture sorption analysis” value ([3]; after sorption/desorption cycle)?
A: substantially unchanged

Q: What about the “mass gain in moisture sorption analysis” value ([3]; increased from about 0% to about 80% RH) of the same compound?
A: about 0.5%

Q: And the “mass gain in moisture sorption analysis” value ([3]; increased from about 0% to about 95% RH)?
A: about 1.4%

Q: What about the solubility ([4]; 2-propanol, 25 °C, organic solvent or mixture, column 1, solvent 2-Propanol) of the same compound?
A: 15.7 mg/mL (≈ 34.9 mM)

Q: What about the solubility ([4]; 2-propanol, 25 °C, organic solvent or mixture, solvent 2-Propanol) of the same compound?
A: 6.39 mg/mL (≈ 14.2 mM)

Q: What about the solubility ([4]; absolute ethanol, 25 °C, organic solvent or mixture, column 1, solvent Absolute ethanol) of the same compound?
A: 47.1 mg/mL (≈ 105 mM)

Q: And the solubility ([4]; absolute ethanol, 25 °C, organic solvent or mixture, solvent Absolute ethanol)?
A: > 50 mg/mL

Q: What about the solubility ([4]; acetone, 25 °C, organic solvent or mixture, column 1, solvent Acetone) of the same compound?
A: 11.6 mg/mL (≈ 25.8 mM)

Q: And the solubility ([4]; acetone, 25 °C, organic solvent or mixture, solvent Acetone)?
A: 1.14 mg/mL (≈ 2.54 mM)

Q: And the solubility ([4]; acetonitrile, 25 °C, organic solvent or mixture, column 1, solvent Acetonitrile)?
A: 2.58 mg/mL (≈ 5.75 mM)

Q: And the solubility ([4]; acetonitrile, 25 °C, organic solvent or mixture, solvent Acetonitrile)?
A: 1.56 mg/mL (≈ 3.48 mM)

Q: What about the solubility ([4]; ethanol/water (1/1), 25 °C, aqueous with cosolvent or surfactant or cyclodextrin, column 1, solvent Ethanol/Water (1/1)) of the same compound?
A: 11.6 mg/mL (≈ 25.9 mM)

Q: And the solubility ([4]; ethanol/water (1/1), 25 °C, aqueous with cosolvent or surfactant or cyclodextrin, solvent Ethanol/Water (1/1))?
A: > 50 mg/mL

Q: And the solubility ([4]; ethyl acetate, 25 °C, organic solvent or mixture, column 1, solvent Ethyl acetate)?
A: 3.91 mg/mL (≈ 8.72 mM)

Q: What about the solubility ([4]; ethyl acetate, 25 °C, organic solvent or mixture, solvent Ethyl acetate) of the same compound?
A: 0.02 mg/mL (≈ 0.0446 mM)

Q: What about the solubility ([4]; heptane, 25 °C, organic solvent or mixture, column 1, solvent Heptane) of the same compound?
A: 0.55 mg/mL (≈ 1.23 mM)

Q: And the solubility ([4]; heptane, 25 °C, organic solvent or mixture, solvent Heptane)?
A: 0.51 mg/mL (≈ 1.14 mM)

Q: And the solubility ([4]; methanol, 25 °C, organic solvent or mixture, column 1, solvent Methanol)?
A: > 50 mg/mL

Q: And the solubility ([4]; methanol, 25 °C, organic solvent or mixture, solvent Methanol)?
A: > 50 mg/mL

Q: And the solubility ([4]; methyl ethyl ketone, 25 °C, organic solvent or mixture, column 1, solvent Methyl ethyl ketone)?
A: 8.74 mg/mL (≈ 19.5 mM)

Q: What about the solubility ([4]; methyl ethyl ketone, 25 °C, organic solvent or mixture, solvent Methyl ethyl ketone) of the same compound?
A: 0.68 mg/mL (≈ 1.52 mM)

Q: And the solubility ([4]; methyl t-butyl ether, 25 °C, organic solvent or mixture, column 1, solvent Methyl t-butyl ether)?
A: 1.1 mg/mL (≈ 2.45 mM)

Q: And the solubility ([4]; methylene chloride, 25 °C, organic solvent or mixture, column 1, solvent Methylene chloride)?
A: 11.6 mg/mL (≈ 25.8 mM)

Q: What about the solubility ([4]; methylene chloride, 25 °C, organic solvent or mixture, solvent Methylene chloride) of the same compound?
A: 5 mg/mL (≈ 11.1 mM)

Q: And the solubility ([4]; n-butanol, 25 °C, organic solvent or mixture, column 1, solvent n-Butanol)?
A: 19.3 mg/mL (≈ 43.1 mM)

Q: What about the solubility ([4]; n-butanol, 25 °C, organic solvent or mixture, solvent n-Butanol) of the same compound?
A: 7.5 mg/mL (≈ 16.7 mM)

Q: What about the solubility ([4]; organic solvent or mixture, solvent Methyl t-butyl ether) of the same compound?
A: 0.46 mg/mL (≈ 1.03 mM)

Q: And the solubility ([4]; tetrahydrofuran, 25 °C, organic solvent or mixture, column 1, solvent Tetrahydrofuran)?
A: > 50 mg/mL

Q: What about the solubility ([4]; tetrahydrofuran, 25 °C, organic solvent or mixture, solvent Tetrahydrofuran) of the same compound?
A: 2.03 mg/mL (≈ 4.53 mM)

Q: And the solubility ([4]; toluene, 25 °C, organic solvent or mixture, column 1, solvent Toluene)?
A: 0.36 mg/mL (≈ 0.803 mM)

Q: What about the solubility ([4]; toluene, 25 °C, organic solvent or mixture, solvent Toluene) of the same compound?
A: 0.04 mg/mL (≈ 0.0892 mM)

Q: And the solubility ([4]; water, 25 °C, water, column 1, solvent Water)?
A: 0.41 mg/mL (≈ 0.914 mM)

Q: And the solubility ([4]; water, 25 °C, water, solvent Water)?
A: > 50 mg/mL
